Assay results reported in the supplement of paper PMC10331698.
± gives the standard deviation of the averaged measurements.

Key:
Experiment in all cases: level (log10 ratio to DMSO vehicle control); higher = higher biomarker level / cell amount than vehicle control
[1] = compound: C=C(C)C(=O)OCCC(F)(F)C(F)(F)C(F)(F)C(F)(F)C(F)(F)C(F)(F)C(F)(F)C(F)(F)F [8:2 Fluorotelomer methacrylate] (in DMSO)
Method: (§1)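 BioMAP Diversity Plus panel of 12 human primary cell co-culture systems (3C, 4H, LPS, SAg, BT, BF4T, BE3C, CASM3C, HDF3CGF, KF3CT, MyoF, Mphg). Compounds were added 1 h before stimulation and left for 24 h (MyoF 48 h; BT 72 h for soluble read-outs or 6 d for IgG). Biomarkers were read by ELISA, cytotoxicity by SRB, PBMC viability and proliferation by Alamar Blue. Each well value was divided by the mean of 8 DMSO control wells on the same plate and log10 transformed; duplicate blinded samples were tested at 4 concentrations.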

Octafluoroadipic acid = compound: O=C(O)C(F)(F)C(F)(F)C(F)(F)C(F)(F)C(=O)O [Octafluoroadipic acid] (in DMSO)
Method: as §1

Perfluoroundecanoic acid = compound: O=C(O)C(F)(F)C(F)(F)C(F)(F)C(F)(F)C(F)(F)C(F)(F)C(F)(F)C(F)(F)C(F)(F)C(F)(F)F [Perfluoroundecanoic acid] (in DMSO); settings: 6700 nM
Method: as §1

[2] = compound: O=C(O)CCC(F)(C(F)(F)F)C(F)(F)F [4,4-bis(Trifluoromethyl)-4-fluoropropanoic acid] (in DMSO)
Method: as §1

[3] = compound: O=S(=O)(O)C(F)(F)C(F)(F)C(F)(F)C(F)(F)C(F)(F)C(F)(F)C(F)(F)F [Perfluoroheptanesulfonic acid] (in DMSO)
Method: as §1

[4] = compound: OCC(F)(F)C(F)(F)C(F)(F)C(F)F [1H,1H,5H-Perfluoropentanol] (in DMSO)
Method: as §1

[5] = compound: OCCC(F)(F)C(F)(F)C(F)(F)C(F)(F)F [4:2 Fluorotelomer alcohol] (in DMSO)
Method: as §1

Row | Test System | level (log10) ([1]; 6700 nM) | level (log10) ([1]; 20000 nM) | level (log10) (Octafluoroadipic acid; 6700 nM) | level (log10) (Octafluoroadipic acid; 20000 nM) | level (log10) (Octafluoroadipic acid; 60000 nM) | level (log10) (Perfluoroundecanoic acid) | level (log10) ([2]; 6700 nM) | level (log10) ([2]; 20000 nM) | level (log10) ([2]; 60000 nM) | level (log10) ([3]; 1500 nM) | level (log10) ([3]; 4400 nM) | level (log10) ([3]; 13000 nM) | level (log10) ([3]; 40000 nM) | level (log10) ([4]; 6700 nM) | level (log10) ([4]; 20000 nM) | level (log10) ([4]; 60000 nM) | level (log10) ([5]; 6700 nM) | level (log10) ([5]; 20000 nM) | level (log10) ([5]; 60000 nM)
1 | LPS:SRB | -0.0085 ± 0.016 | -0.0005 ± 0.023 | 0.0015 ± 0.0064 | 0.004 ± 0.0085 | -0.0055 ± 0.0064 | 0.005 ± 0.0057 | -0.0045 ± 0.0064 | -0.0035 ± 0.00071 | 0.0135 ± 0.0092 | -0.0105 ± 0.005 | -0.0165 ± 0.0021 | -0.002 ± 0.0085 | 0.007 ± 0.02 | -0.017 ± 0.0014 | -0.0115 ± 0.00071 | -0.0005 ± 0.0078 | -0.012 ± 0.0057 | -0.0145 ± 0.0092 | -0.006 ± 0.0014
2 | LPS:IL-1alpha | 0.074 ± 0.0057 | 0.0625 ± 0.077 | -0.003 ± 0.0028 | 0.017 ± 0.045 | 0.029 ± 0.047 | -0.103 ± 0.019 | 0.009 ± 0.072 | 0.0215 ± 0.022 | 0.0215 ± 0.032 | 0.0125 ± 0.033 | -0.0015 ± 0.026 | -0.002 ± 0.069 | 0.056 ± 0.095 | -0.048 ± 0.021 | -0.0295 ± 0.0064 | -0.003 ± 0.0099 | -0.039 ± 0.055 | -0.0135 ± 0.0021 | -0.0205 ± 0.0078
3 | BT:sIL-2 | -0.006 ± 0.024 | -0.04 ± 0.064 | -0.006 ± 0.15 | -0.012 ± 0.021 | -0.0495 ± 0.061 | 0.03 ± 0.033 | -0.0855 ± 0.13 | 0.02 ± 0.12 | 0.005 ± 0.2 | -0.0445 ± 0.037 | 0.0215 ± 0.039 | -0.0005 ± 0.013 | -0.0565 ± 0.036 | -0.0095 ± 0.066 | -0.0245 ± 0.0078 | 0.0145 ± 0.059 | 0.0085 ± 0.064 | 0.0625 ± 0.11 | 0.0265 ± 0.071
4 | BF4T:CD54/ICAM-1 | -0.023 ± 0.0099 | 0.001 ± 0.0099 | -0.001 ± 0.025 | -0.007 ± 0.017 | 0.0065 ± 0.029 | -0.0175 ± 0.026 | 0.0175 ± 0.013 | 0.006 ± 0.0071 | 0.002 ± 0.013 | 0.009 ± 0.011 | 0.004 ± 0.017 | -0.0155 ± 0.0035 | 0.0125 ± 0.016 | -0.0035 ± 0.019 | 0.01 ± 0.013 | 0.02 ± 0.021 | -0.0055 ± 0.025 | 0.0135 ± 0.03 | -0.003 ± 0.034
5 | LPS:CD141/Thrombomodulin | -0.021 ± 0.038 | -0.064 ± 0.0099 | -0.014 ± 0.0014 | -0.0135 ± 0.028 | 0.006 ± 0.014 | 0.018 ± 0.016 | -0.0025 ± 0.0035 | -0.009 ± 0.028 | -0.002 ± 0.0099 | 0.028 ± 0.011 | -0.0075 ± 0.026 | 0.006 ± 0.03 | -0.0065 ± 0.023 | -0.0125 ± 0.0035 | 0.008 ± 0.02 | 0.023 ± 0.0099 | -0.037 ± 0.034 | 0.0025 ± 0.03 | -0.005 ± 0.02
6 | 4H:CCL2/MCP-1 | -0.0075 ± 0.053 | 0.027 ± 0.034 | -0.03 ± 0.018 | -0.0365 ± 0.025 | 0.03 ± 0.024 | -0.024 ± 0.023 | 0.016 ± 0.024 | 0.0275 ± 0.03 | 0.023 ± 0.047 | -0.0125 ± 0.094 | 0.0165 ± 0.081 | 0.03 ± 0.05 | 0.0135 ± 0.012 | -0.0265 ± 0.046 | -0.0115 ± 0.033 | 0.039 ± 0.055 | -0.101 ± 0.0071 | -0.0325 ± 0.0064 | 0.0115 ± 0.025
7 | BE3C:HLA-DR | -0.004 ± 0.021 | 0.0085 ± 0.033 | 0 ± 0.021 | 0.0045 ± 0.018 | 0.012 ± 0.0028 | -0.0815 ± 0.022 | -0.011 | -0.0125 ± 0.005 | 0.0065 ± 0.029 | 0.01 ± 0.014 | -0.013 ± 0.016 | -0.01 ± 0.021 | -0.028 ± 0.033 | -0.017 ± 0.011 | -0.0095 ± 0.016 | 0.019 ± 0.023 | -0.0265 ± 0.052 | -0.0075 ± 0.03 | 0.002 ± 0.0099
8 | LPS:CD62E/E-Selectin | 0.028 ± 0.0014 | 0.027 ± 0.035 | 0.002 ± 0.023 | -0.008 ± 0.0057 | 0.0085 ± 0.022 | -0.014 ± 0.016 | 0.0115 ± 0.023 | 0.0055 ± 0.013 | -0.007 ± 0.016 | 0.0155 ± 0.015 | -0.0065 ± 0.0035 | -0.0075 ± 0.026 | 0.0095 ± 0.042 | -0.0165 ± 0.00071 | 0.0125 ± 0.0064 | 0.0055 ± 0.022 | 0.002 ± 0.023 | -0.0195 ± 0.012 | -0.0045 ± 0.03
9 | BE3C:CD87/uPAR | -0.0135 ± 0.023 | 0.0015 ± 0.036 | -0.0115 ± 0.00071 | 0.0035 ± 0.00071 | 0.0125 ± 0.018 | 0.138 ± 0.019 | 0.0005 ± 0.028 | -0.004 ± 0.044 | -0.01 ± 0.0028 | 0.017 ± 0.024 | -0.0045 ± 0.015 | -0.0065 ± 0.03 | 0.05 ± 0.069 | -0.012 ± 0.0085 | -0.01 ± 0.0071 | 0 ± 0.027 | 0.005 ± 0.0099 | -0.0025 ± 0.0064 | 0.0145 ± 0.0021
10 | 4H:SRB | -0.0205 ± 0.028 | -0.0105 ± 0.042 | -0.002 ± 0.013 | 0.0025 ± 0.00071 | -0.0105 ± 0.0035 | -0.0105 ± 0.011 | -0.008 | -0.0125 ± 0.011 | 0.014 ± 0.02 | -0.0185 ± 0.012 | -0.007 ± 0.014 | -0.0055 ± 0.013 | -0.0065 ± 0.018 | -0.003 ± 0.0014 | 0.011 ± 0.0042 | 0.0065 ± 0.005 | -0.0005 ± 0.012 | -0.004 ± 0.0014 | 0.0135 ± 0.015
11 | BF4T:IL-1alpha | -0.009 ± 0.0057 | 0.008 ± 0.016 | -0.003 ± 0.0014 | -0.016 ± 0.0042 | 0.002 ± 0.0014 | -0.014 ± 0.023 | -0.0005 ± 0.0092 | -0.0135 ± 0.019 | 0.003 ± 0.031 | 0.0205 ± 0.025 | 0.0055 ± 0.005 | 0.01 ± 0.0014 | 0.0205 ± 0.016 | -0.02 ± 0.0085 | 0.03 ± 0.044 | 0.0195 ± 0.018 | -0.0245 ± 0.028 | 0.004 ± 0.0028 | 0.0055 ± 0.016
12 | 4H:VEGFR2 | 0.028 ± 0.023 | 0.015 ± 0.05 | 0.0205 ± 0.029 | 0.0085 ± 0.05 | 0.0155 ± 0.042 | -0.008 ± 0.0085 | 0.0265 ± 0.054 | 0.0195 ± 0.044 | 0.03 ± 0.045 | 0.023 ± 0.041 | -0.013 ± 0.0085 | -0.005 ± 0.044 | 0.043 ± 0.1 | -0.021 ± 0.028 | -0.0215 ± 0.0021 | 0.0395 ± 0.073 | -0.071 ± 0.035 | -0.021 ± 0.033 | -0.0205 ± 0.0064
13 | BE3C:CXCL9/MIG | -0.01 ± 0.014 | -0.0095 ± 0.022 | 0.0105 ± 0.013 | 0.012 | 0.0075 ± 0.016 | -0.0125 ± 0.0064 | -0.01 ± 0.014 | -0.0085 ± 0.022 | -0.0135 ± 0.016 | -0.011 ± 0.02 | -0.009 ± 0.025 | -0.006 ± 0.013 | -0.006 ± 0.016 | -0.0075 ± 0.012 | 0.0135 ± 0.0092 | 0.013 ± 0.018 | -0.0055 ± 0.016 | 0.0065 ± 0.0078 | 0.0025 ± 0.0021
14 | BF4T:uPA | -0.013 ± 0.013 | 0.009 ± 0.0014 | -0.0115 ± 0.023 | -0.0175 ± 0.03 | -0.003 | 0.0275 ± 0.0064 | -0.0015 ± 0.011 | -0.0065 ± 0.016 | -0.001 ± 0.0042 | 0.001 ± 0.018 | -0.0035 ± 0.012 | -0.017 ± 0.0014 | 0.0095 ± 0.0064 | -0.0215 ± 0.032 | 0.023 ± 0.016 | 0.013 ± 0.02 | -0.008 ± 0.035 | 0.012 ± 0.013 | 0.018 ± 0.025
15 | BT:PBMC Cytotoxicity | -0.0005 ± 0.0021 | 0.016 ± 0.058 | -0.0015 ± 0.029 | 0.001 ± 0.0014 | 0.0025 ± 0.019 | 0.0085 ± 0.029 | 0.0145 ± 0.019 | -0.0095 ± 0.023 | -0.002 ± 0.057 | -0.0045 ± 0.021 | -0.009 ± 0.011 | -0.0015 ± 0.013 | 0.0145 ± 0.054 | -0.0275 ± 0.013 | -0.038 ± 0.045 | -0.019 ± 0.042 | -0.044 ± 0.0042 | -0.0365 ± 0.013 | -0.045 ± 0.031
